Patent US9107415B2, “2-(substituted-phenyl)-cyclopentane-1,3-dione compounds, and derivatives thereof” (Syngenta Limited, priority 2011, dated 2015)

Experiments:
Assay type in all cases: in vivo
[1] = system: Echinochloa crus-galli (ECHCG); assay: Biological Example 1 glasshouse screen, post-emergence herbicidal activity; conditions: 312 h, application rate 250 g/ha, evaluated after 13 days, read-out: ECHCG percentage phytotoxicity
Procedure, shortened: (§1)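 Read-out: visual percentage phytotoxicity at 13 days, 0% no damage to 100% total damage. Spray solution of unformulated compound in 50:50 acetone/water plus 0.5% Tween 20, applied to potted plants one day after sowing (pre) or after 8 days' growth (post).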

[2] = system: Alopecurus myosuroides (ALOMY); assay: as above; conditions: 312 h, application rate 250 g/ha, evaluated after 13 days, read-out: ALOMY percentage phytotoxicity
Procedure, shortened: as §1

Solanum nigrum (SOLNI) [3] = assay: Biological Example 1 glasshouse screen, pre-emergence herbicidal activity; conditions: application rate 250 g/ha, evaluated after 13 days
Experimental: (§2) Seeds of a variety of test species were sown in standard soil in pots. After cultivation for one day (pre-emergence) or after 8 days cultivation (post-emergence) under controlled conditions in a glasshouse (at 24/16°C., day/night; 14 hours light; 65% humidity), the plants were sprayed with an aqueous spray solution derived from the formulation of the “technical”(i.e. unformulated) active ingredient in acetone/water (50:50) solution containing 0.5% Tween 20 (polyoxyethylene sorbitan monolaurate, CAS Registry Number 9005-64-5). The test plants were then grown in a glasshouse under controlled conditions in a glasshouse (at 24/16°C., day/night; 14 hours light; 65% humidity) and watered twice daily. After 13 days for pre- or post-emergence, the test was evaluated visually, and an assessed percentage phytotoxicity score given for each herbicidal application on each plant/weed species (with 100%=total damage to plant; 0%=no damage to plant).
(§3) Test plants: Alopecurus myosuroides (ALOMY), Setaria faberi (SETFA), Echinochloa crus-galli (ECHCG), Solanum nigrum (SOLNI), Amaranthus retroflexus (AMARE) and Ipomoea hederacea (IPOHE). ALOMY, SETFA and ECHCG are grassy monocotyledonous weeds. SOLNI, AMARE and IPOHE are dicotyledonous (broadleaved) weeds.

[4] = system: Ipomoea hederacea (IPOHE); assay: as above; conditions: application rate 250 g/ha, evaluated after 13 days
Experimental: as §2, §3

Setaria faberi (SETFA) [5] = assay: as above; conditions: application rate 250 g/ha, evaluated after 13 days
Experimental: as §2, §3

[6] = system: Amaranthus retroflexus (AMARE); assay: as above; conditions: application rate 250 g/ha, evaluated after 13 days
Experimental: as §2, §3

Solanum nigrum (SOLNI) [7] = assay: Biological Example 1 glasshouse screen, post-emergence herbicidal activity; conditions: application rate 250 g/ha, evaluated after 13 days
Experimental: as §2, §3

[8] = system: Ipomoea hederacea (IPOHE); assay: as above; conditions: application rate 250 g/ha, evaluated after 13 days
Experimental: as §2, §3

Setaria faberi (SETFA) [9] = assay: as above; conditions: application rate 250 g/ha, evaluated after 13 days
Experimental: as §2, §3

[10] = system: Amaranthus retroflexus (AMARE); assay: as above; conditions: application rate 250 g/ha, evaluated after 13 days
Experimental: as §2, §3

[11] = system: Echinochloa crus-galli (ECHCG); assay: Biological Example 2 post-emergence herbicidal activity (comparative data); conditions: 312 h, read-out: ECHCG percentage phytotoxicity
Experimental: as §2
(§4) Comparative herbicidal data are given for certain exemplified compounds with 4-(prop-1-ynyl)-2,6-dimethylphenyl or 4-(chloroethynyl)-2,6-dimethylphenyl headgroups, compared to the corresponding comparative compounds with 4-ethynyl-2,6-dimethylphenyl headgroups, as follows.
(§5) Except where specified otherwise, the glasshouse screen for herbicidal activity is substantially the same as that presented in Biological Example 1 hereinabove. The weed abbreviations are as defined in Biological Example 1.

[12] = system: Alopecurus myosuroides (ALOMY); assay: as above; conditions: 312 h, read-out: ALOMY percentage phytotoxicity
Experimental: as §2, §4, §5

Setaria faberi (SETFA) [13] = assay: as above
Experimental: as §2, §4, §5

[14] = system: Echinochloa crus-galli (ECHCG); assay: Biological Example 1 glasshouse screen, pre-emergence herbicidal activity; conditions: 312 h, application rate 250 g/ha, evaluated after 13 days, read-out: ECHCG percentage phytotoxicity
Procedure, shortened: as §1

[15] = system: Alopecurus myosuroides (ALOMY); assay: as above; conditions: 312 h, application rate 250 g/ha, evaluated after 13 days, read-out: ALOMY percentage phytotoxicity
Procedure, shortened: as §1

Lolium perenne (LOLPE) = assay: Biological Example 1 glasshouse screen, post-emergence herbicidal activity; conditions: 312 h, application rate 250 g/ha, evaluated after 13 days, read-out: LOLPE percentage phytotoxicity
Procedure, shortened: (§6)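 Pots in a glasshouse (24/16°C day/night, 14 h light, 65% humidity) were sprayed one day after sowing (pre-emergence) or after 8 days (post-emergence), using acetone/water (50:50) with 0.5% Tween 20. Phytotoxicity was scored visually as % damage (0-100) 13 days after application.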

Avena fatua (AVEFA) [16] = assay: as above; conditions: 312 h, application rate 250 g/ha, evaluated after 13 days, read-out: AVEFA percentage phytotoxicity
Procedure, shortened: as §6

Winter Wheat “Hereward” = assay: Biological Example 4A post-emergence phytotoxicity on cereal crops; conditions: 14 DAA, EC formulation, mean of two
Experimental: (§7) Seeds of a variety of test species are sown in standard soil in pots. After cultivation for 14 days under controlled conditions in a glasshouse (at 22/16°C., day/night; 16 hours light; 65% humidity), the plants are sprayed with the test compounds. The test plants are then grown on under controlled conditions in the glasshouse (at 22/16°C., day/night; 16 hours light; 65% humidity) and are watered twice daily. After 14 days the test is evaluated visually (100%=total damage to plant; 0%=no damage to plant). Post-emergence herbicidal activity (phytotoxicity) data, on certain grassy monocotyledonous weeds and cereal crops in a glasshouse, are measured 14 days after application of the herbicide (14 DAA), inter alia for post-emergence application rates of 30 or 60 g/ha of the test herbicide, with or without 50 g/ha of cloquintocet-mexyl safener applied at substantially the same time as the herbicide.
(§8) Herbicidal activity (phytotoxicity) is evaluated visually, and an assessed percentage phytotoxicity score is given for each herbicidal application on each plant species (with 100%=total damage to plant; 0%=no damage to plant). Two repetitions are made for each experiment and the mean herbicidal activity (phytotoxicity) data is reported.
(§9) Biological Example 4A is used on previously-formulated compounds, typically compounds previously formulated as an emulsifiable concentrates (EC), wherein the EC contains the herbicidal compound under test dissolved in one or more organic solvents, and wherein the EC also contains one or more surfactants or emulsifiers. In the test method, the EC containing the herbicide (plus a cloquintocet-mexyl formulation if this is also present) is generally diluted with water to form an emulsion, and the resulting emulsion is sprayed onto the emerged weed and/or crop plants.
(§10) For the testing of Compounds A-5 and A-6, each of these compounds was separately formulated into an emulsifiable concentrate containing 10% w/w of the herbicidal compound, 9% w/w of castor oil ethoxylate (an emulsifier, present as Emulsogen™EL360), 6% w/w of calcium dodecylbenzenesulfonate (linear) (an emulsifier, present as Nansa™EVM 63B), 3% w/w of tristyrylphenol ethoxylate having 16 moles of ethoxylation per mole of molecule (an emulsifier, present as Soprophor™BSU), 10% w/w of benzyl benzoate (as solvent), 20% w/w of 1-methyl-2-pyrrolidone (as solvent), and the remainder of N-octyl-2-pyrrolidone (as solvent). The solvents and surfactants/emulsifiers were first mixed together, to form a “blank” EC, and the herbicidal compound was then added to and dissolved in this solvent and emulsifier mixture to prepare the emulsifiable concentrate, to give an EC formulation/composition containing approximately 100 g/L of active herbicidal compound.
(§11) In the tests of Compounds A-5 and A-6, the cloquintocet-mexyl was pre-formulated as a formulation/composition containing 10% w/w cloquintocet-mexyl, 6% w/w Emulsogen™ EL360 (as emulsifier), 4% w/w Nansa™EVM 63B (as wetting agent), 1% w/w Drapex™39 (epoxidised soybean oil), 20% w/w 1-methyl-2-pyrrolidone (as solvent), and the remainder as Solvesso™200ND (a mixture of heavy aromatic hydrocarbons, as a solvent).

[17] = system: Spring Barley “Harrington”; assay: as above; conditions: 14 DAA, EC formulation, mean of two
Experimental: as §7, §8, §9, §10, §11

Spring Wheat “Teal” = assay: as above; conditions: 14 DAA, EC formulation, mean of two
Experimental: as §7, §8, §9, §10, §11

Winter Barley “Suzuka” = assay: as above; conditions: 14 DAA, EC formulation, mean of two
Experimental: as §7, §8, §9, §10, §11

Avena fatua (AVEFA) [18] = assay: Biological Example 4A (previously-formulated compounds) post-emergence herbicidal activity on grassy weeds; conditions: 14 DAA, EC formulation, mean of two
Experimental: as §7, §8, §9, §10, §11
(§12) Test plants: Avena fatua (AVEFA), Lolium multiflorum (LOLMU), Setaria viridis (SETVI), Poa annua (POAAN), Alopecurus myosuroides (ALOMY). All five of these are grassy monocotyledonous weeds.

Poa annua (POAAN) = assay: as above; conditions: 14 DAA, EC formulation, mean of two
Experimental: as §7, §8, §9, §10, §11, §12

Setaria viridis (SETVI) = assay: as above; conditions: 14 DAA, EC formulation, mean of two
Experimental: as §7, §8, §9, §10, §11, §12

[19] = system: Alopecurus myosuroides (ALOMY); assay: as above; conditions: 14 DAA, EC formulation, mean of two
Experimental: as §7, §8, §9, §10, §11, §12

[20] = system: Lolium multiflorum (LOLMU); assay: as above; conditions: 14 DAA, EC formulation, mean of two
Experimental: as §7, §8, §9, §10, §11, §12

[21] = 30 g/ha, cloquintocet-mexyl 0 g/ha
[22] = 30 g/ha, cloquintocet-mexyl 50 g/ha
[23] = 60 g/ha, cloquintocet-mexyl 0 g/ha
[24] = 60 g/ha, cloquintocet-mexyl 50 g/ha

Cc1cc(C#CCl)cc(C)c1C1=C(O)CC(Cc2ccccn2)C1=O (racemic) [Compound A-3, rac-2-(4-Chloroethynyl-2,6-dimethylphenyl)-4-(pyridin-2-ylmethyl)cyclopentane-1,3-dione]
pest or weed control at 250 g/ha [1]: 100% | pest or weed control at 250 g/ha [2]: 90% | SOLNI percentage phytotoxicity (Solanum nigrum (SOLNI) [3]): 90% | IPOHE percentage phytotoxicity [4]: 70% | SEFTA percentage phytotoxicity (Setaria faberi (SETFA) [5]): 100% | AMARE percentage phytotoxicity [6]: 90% | SOLNI percentage phytotoxicity (Solanum nigrum (SOLNI) [7]): 70% | IPOHE percentage phytotoxicity [8]: 30% | SEFTA percentage phytotoxicity (Setaria faberi (SETFA) [9]): 100% | AMARE percentage phytotoxicity [10]: 60% | pest or weed control at 15.625 g/ha ([11]; 15.625 g/ha application rate): 100% | pest or weed control at 62.5 g/ha ([11]; 62.5 g/ha application rate): 100% | pest or weed control at 15.625 g/ha ([12]; 15.625 g/ha application rate): 90% | pest or weed control at 62.5 g/ha ([12]; 62.5 g/ha application rate): 90% | SETFA percentage phytotoxicity (Setaria faberi (SETFA) [13]; 15.625 g/ha application rate): 80% | SETFA percentage phytotoxicity (Setaria faberi (SETFA) [13]; 62.5 g/ha application rate): 90% | pest or weed control at 250 g/ha [14]: 100% | pest or weed control at 250 g/ha [15]: 90%

CC#Cc1cc(C)c(C2=C(O)C[C@H](Cc3ccccn3)C2=O)c(C)c1 [Compound A-5]
pest or weed control at 250 g/ha [1]: 90% | pest or weed control at 250 g/ha [2]: 80% | pest or weed control at 250 g/ha (Lolium perenne (LOLPE)): 80% | pest or weed control at 250 g/ha (Avena fatua (AVEFA) [16]): 90% | Winter Wheat “Hereward” phytotoxicity (%) (Winter Wheat “Hereward”; [21]): 40% | Winter Wheat “Hereward” phytotoxicity (%) (Winter Wheat “Hereward”; [22]): 0% | Winter Wheat “Hereward” phytotoxicity (%) (Winter Wheat “Hereward”; [23]): 53% | Winter Wheat “Hereward” phytotoxicity (%) (Winter Wheat “Hereward”; [24]): 0% | Spring Barley “Harrington” phytotoxicity (%) [17, 21]: 73% | Spring Barley “Harrington” phytotoxicity (%) [17, 22]: 3% | Spring Barley “Harrington” phytotoxicity (%) [17, 23]: 88% | Spring Barley “Harrington” phytotoxicity (%) [17, 24]: 18% | Spring Wheat “Teal” phytotoxicity (%) (Spring Wheat “Teal”; [21]): 43% | Spring Wheat “Teal” phytotoxicity (%) (Spring Wheat “Teal”; [22]): 0% | Spring Wheat “Teal” phytotoxicity (%) (Spring Wheat “Teal”; [23]): 80% | Spring Wheat “Teal” phytotoxicity (%) (Spring Wheat “Teal”; [24]): 0% | Winter Barley “Suzuka” phytotoxicity (%) (Winter Barley “Suzuka”; [21]): 33% | Winter Barley “Suzuka” phytotoxicity (%) (Winter Barley “Suzuka”; [22]): 0% | Winter Barley “Suzuka” phytotoxicity (%) (Winter Barley “Suzuka”; [23]): 65% | Winter Barley “Suzuka” phytotoxicity (%) (Winter Barley “Suzuka”; [24]): 0% | AVEFA % phytotoxicity (Avena fatua (AVEFA) [18]; [21]): 58% | AVEFA % phytotoxicity (Avena fatua (AVEFA) [18]; [22]): 23% | AVEFA % phytotoxicity (Avena fatua (AVEFA) [18]; [23]): 83% | AVEFA % phytotoxicity (Avena fatua (AVEFA) [18]; [24]): 68% | POAAN % phytotoxicity (Poa annua (POAAN); [21]): 0% | POAAN % phytotoxicity (Poa annua (POAAN); [22]): 13% | POAAN % phytotoxicity (Poa annua (POAAN); [23]): 18% | POAAN % phytotoxicity (Poa annua (POAAN); [24]): 5% | SETVI % phytotoxicity (Setaria viridis (SETVI); [21]): 80% | SETVI % phytotoxicity (Setaria viridis (SETVI); [22]): 85% | SETVI % phytotoxicity (Setaria viridis (SETVI); [23]): 98% | SETVI % phytotoxicity (Setaria viridis (SETVI); [24]): 95% | ALOMY % phytotoxicity [19, 21]: 58% | ALOMY % phytotoxicity [19, 22]: 63% | ALOMY % phytotoxicity [19, 23]: 93% | ALOMY % phytotoxicity [19, 24]: 98% | LOLMU % phytotoxicity [20, 21]: 93% | LOLMU % phytotoxicity [20, 22]: 68% | LOLMU % phytotoxicity [20, 23]: 95% | LOLMU % phytotoxicity [20, 24]: 99%
